System: cerebrospinal fluid glutamate level
Assay: Intracerebroventricular retrodialysis in rats with enzymatic chemiluminescent glutamate determination in microdialysates
Assay type: in vivo, Sprague-Dawley rats
Procedure: For this example, intracerebroventricular retrodialysis was performed on rats according to techniques known to those skilled in the art. The analysis of microdialysates was performed according to Israël and collaborators' publication (Neurochem Int 22(1): 53-58, 1993). Procedures are described below:
Surgery was performed on adult male Sprague-Dawley rats weighing 330-340g at the time of surgery. Following induction of anaesthesia with intraperitoneal administration of ketamine/xylazine, animals were secured in a stereotaxic frame in the flat-skull position at a constant setting of -3.3mm between ear and incisor bars. After defining the "stereotaxic zero" in accordance with Paxinos and Watson's atlas (1986), a microdialysis guide cannula was directed towards the right lateral ventricle with the coordinates from Bregma: anteroposterior -0.8mm, mediolateral +1.5mm, and dorsoventral (DV) -1.5mm (CMA12 probe: 2mm membrane) (Khandewal et al., J Neurosci Methods 133(1-2): 181-189, 2004).
The guide cannula was fixed to the skull using dental cement and three stainless steel screws. […]
Samples were subsequently analysed for glutamate determination using an enzymatic assay (Israël et al., 1993). The procedure is based on the oxidation of L-glutamate […] with subsequent NADH production, the NADH being continuously evaluated using the photobacterium chemiluminescent reaction at 460-490nm. […]

NC(=O)NN=C1C=Cc2ccc(OCCN3CCOCC3)cc2C1=O [Example 13, 7-(2-morpholin-4-yl-ethoxy) naphtalene-1,2-dione2-semicarbazone]
response of cerebrospinal fluid glutamate level to the compound (rat C (one rat out of five), 30µM solution by retrodialysis for 40min): did not response | decrease of the cerebrospinal fluid glutamate level (rats A, B, D and E (four of five), 30µM solution by retrodialysis for 40min into right lateral ventricle, after 80 minutes, relative to baseline set at 100%): up to 50%
